Test results taken from ChEMBL document CHEMBL1201862, “PubChem BioAssay data set” (2004).
The source made the active and inactive calls.

Columns and labels:
[1] = target: T1, E3 ubiquitin-protein ligase XIAP (Homo sapiens, UniProt P98170); assay: SAR analysis of Antagonists of XIAP-Bir3 domain of IAP-family anti-apoptotic proteins. [Related pubchem assays (depositor defined):AID1018, AID1449, AID1513, AID1514, AID1638]
[2] = target: T1, E3 ubiquitin-protein ligase XIAP; assay: SAR analysis of Antagonists of IAP-family anti-apoptotic proteins. [Related pubchem assays (depositor defined):AID1018, AID1449, AID1513, AID1514, AID1638]
[3] = target: T2, Alkaline phosphatase, tissue-nonspecific isozyme (Homo sapiens, UniProt P05186); assay: TNAP enzyme inhibition by screening hits, dose response, selectivity assay for mouse IAP inhibitor project, biochemical, human TNAP, uHTS hits (AID 488906); format: functional
T2 sequence (P05186 whole entry): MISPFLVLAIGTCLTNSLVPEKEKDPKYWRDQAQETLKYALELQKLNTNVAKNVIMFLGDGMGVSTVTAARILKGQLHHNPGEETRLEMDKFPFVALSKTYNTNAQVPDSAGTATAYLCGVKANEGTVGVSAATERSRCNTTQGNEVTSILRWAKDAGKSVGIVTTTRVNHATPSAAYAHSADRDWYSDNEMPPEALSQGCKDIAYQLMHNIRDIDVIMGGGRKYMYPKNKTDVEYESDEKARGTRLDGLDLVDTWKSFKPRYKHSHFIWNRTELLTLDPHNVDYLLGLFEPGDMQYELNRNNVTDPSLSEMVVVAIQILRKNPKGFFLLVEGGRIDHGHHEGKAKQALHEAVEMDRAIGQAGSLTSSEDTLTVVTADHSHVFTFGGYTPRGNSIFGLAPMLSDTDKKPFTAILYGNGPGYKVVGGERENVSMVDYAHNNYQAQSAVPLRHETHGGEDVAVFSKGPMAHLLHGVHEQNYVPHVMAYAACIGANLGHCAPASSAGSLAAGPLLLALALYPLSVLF

[4] = target: Intestinal-type alkaline phosphatase (Mus musculus, UniProt P24822); assay: PubChem AID 488785; format: functional
Sequence of Intestinal-type alkaline phosphatase (Mus musculus, UniProt P24822) (P24822 whole entry): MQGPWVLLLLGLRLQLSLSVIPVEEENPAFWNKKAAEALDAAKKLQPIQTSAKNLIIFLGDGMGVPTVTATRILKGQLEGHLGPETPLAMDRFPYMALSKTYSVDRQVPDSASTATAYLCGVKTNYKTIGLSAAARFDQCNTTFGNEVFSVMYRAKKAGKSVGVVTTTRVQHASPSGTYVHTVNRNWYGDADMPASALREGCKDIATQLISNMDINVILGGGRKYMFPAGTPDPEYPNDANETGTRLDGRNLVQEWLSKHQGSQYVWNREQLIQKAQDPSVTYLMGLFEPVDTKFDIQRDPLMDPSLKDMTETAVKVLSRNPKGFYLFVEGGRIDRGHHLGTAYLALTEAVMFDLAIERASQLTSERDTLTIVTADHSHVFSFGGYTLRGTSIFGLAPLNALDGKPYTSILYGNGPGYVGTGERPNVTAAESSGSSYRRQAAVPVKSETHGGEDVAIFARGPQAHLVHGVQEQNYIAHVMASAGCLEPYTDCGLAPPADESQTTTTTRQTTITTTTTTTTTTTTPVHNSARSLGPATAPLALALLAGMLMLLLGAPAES

[5] = target: Intestinal-type alkaline phosphatase (Homo sapiens, UniProt P09923); assay: inhibition of human intestinal alkaline phosphatase – biochemical, dose response (AID 488876); format: functional
[6] = target: T3, Histone-lysine N-methyltransferase NSD2 (Homo sapiens, UniProt O96028); format: biochemical
T3 sequence (O96028 whole entry): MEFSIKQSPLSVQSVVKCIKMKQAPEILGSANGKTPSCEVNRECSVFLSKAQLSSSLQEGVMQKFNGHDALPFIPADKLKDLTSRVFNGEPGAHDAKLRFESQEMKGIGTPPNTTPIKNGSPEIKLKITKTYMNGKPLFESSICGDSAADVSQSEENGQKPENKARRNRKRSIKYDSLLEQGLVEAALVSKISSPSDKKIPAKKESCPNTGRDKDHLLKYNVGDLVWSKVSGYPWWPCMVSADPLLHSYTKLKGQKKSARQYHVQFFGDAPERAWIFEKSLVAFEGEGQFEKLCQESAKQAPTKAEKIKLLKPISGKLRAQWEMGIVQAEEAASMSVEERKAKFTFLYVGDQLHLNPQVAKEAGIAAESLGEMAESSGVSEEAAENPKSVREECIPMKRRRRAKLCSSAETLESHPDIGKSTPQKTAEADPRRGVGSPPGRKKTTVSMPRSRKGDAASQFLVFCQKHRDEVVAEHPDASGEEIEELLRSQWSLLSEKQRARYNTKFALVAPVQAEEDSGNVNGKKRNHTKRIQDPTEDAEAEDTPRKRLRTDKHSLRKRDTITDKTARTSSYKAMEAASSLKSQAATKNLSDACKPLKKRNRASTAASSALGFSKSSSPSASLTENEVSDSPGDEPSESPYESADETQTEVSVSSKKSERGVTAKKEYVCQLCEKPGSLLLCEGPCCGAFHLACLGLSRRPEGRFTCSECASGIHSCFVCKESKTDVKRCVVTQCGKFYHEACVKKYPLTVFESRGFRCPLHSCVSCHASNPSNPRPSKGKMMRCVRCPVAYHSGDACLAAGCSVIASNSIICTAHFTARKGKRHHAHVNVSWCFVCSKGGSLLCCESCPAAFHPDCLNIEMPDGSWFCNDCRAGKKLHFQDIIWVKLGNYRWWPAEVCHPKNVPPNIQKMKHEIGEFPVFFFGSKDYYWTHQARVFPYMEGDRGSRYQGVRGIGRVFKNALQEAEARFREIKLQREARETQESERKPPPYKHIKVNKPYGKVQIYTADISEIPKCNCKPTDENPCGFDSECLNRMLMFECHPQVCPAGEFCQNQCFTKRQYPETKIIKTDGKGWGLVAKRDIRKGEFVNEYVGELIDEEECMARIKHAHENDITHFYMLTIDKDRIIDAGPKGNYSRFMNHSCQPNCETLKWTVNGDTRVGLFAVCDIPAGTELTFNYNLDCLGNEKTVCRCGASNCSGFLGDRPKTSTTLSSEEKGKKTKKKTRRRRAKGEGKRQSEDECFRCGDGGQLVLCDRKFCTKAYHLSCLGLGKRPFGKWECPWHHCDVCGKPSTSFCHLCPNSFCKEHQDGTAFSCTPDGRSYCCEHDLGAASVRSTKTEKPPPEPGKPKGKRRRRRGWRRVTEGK

[7] = target: Potassium voltage-gated channel subfamily KQT member 2 (Rattus norvegicus, UniProt O88943); assay: rat KCNQ2 current potentiators – automated patch clamp, KCNQ2-CHO cells, SAR follow-up (AID 493113); format: functional
Sequence of Potassium voltage-gated channel subfamily KQT member 2 (O88943 whole entry): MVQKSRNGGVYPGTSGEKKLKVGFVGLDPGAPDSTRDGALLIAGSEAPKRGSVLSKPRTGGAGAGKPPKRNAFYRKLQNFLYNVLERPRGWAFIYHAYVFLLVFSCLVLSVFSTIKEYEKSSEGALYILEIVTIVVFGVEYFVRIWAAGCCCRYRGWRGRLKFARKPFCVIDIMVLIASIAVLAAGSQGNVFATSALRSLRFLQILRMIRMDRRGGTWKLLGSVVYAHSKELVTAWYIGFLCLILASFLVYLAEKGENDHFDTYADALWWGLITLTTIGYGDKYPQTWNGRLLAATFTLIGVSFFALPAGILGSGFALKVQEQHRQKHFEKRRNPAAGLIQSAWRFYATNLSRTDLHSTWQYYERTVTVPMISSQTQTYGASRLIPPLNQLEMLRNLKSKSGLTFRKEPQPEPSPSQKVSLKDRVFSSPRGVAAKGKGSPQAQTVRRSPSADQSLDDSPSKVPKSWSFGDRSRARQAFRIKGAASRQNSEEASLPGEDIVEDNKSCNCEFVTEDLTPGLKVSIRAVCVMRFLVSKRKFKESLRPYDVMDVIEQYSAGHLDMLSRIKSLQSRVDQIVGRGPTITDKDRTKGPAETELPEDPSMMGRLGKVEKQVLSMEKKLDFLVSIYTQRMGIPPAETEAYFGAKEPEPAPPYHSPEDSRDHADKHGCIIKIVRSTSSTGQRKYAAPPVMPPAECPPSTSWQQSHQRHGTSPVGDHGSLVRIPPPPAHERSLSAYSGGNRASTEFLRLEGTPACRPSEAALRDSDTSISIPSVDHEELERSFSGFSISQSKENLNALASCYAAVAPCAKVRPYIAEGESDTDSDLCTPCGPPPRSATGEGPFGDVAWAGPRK

Cytochrome P450 3A4 = Cytochrome P450 3A4 (Homo sapiens, UniProt P08684);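 further: CYP3A4 tested as one member of a cytochrome P450 panel screen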
Sequence of Cytochrome P450 3A4 (P08684 whole entry): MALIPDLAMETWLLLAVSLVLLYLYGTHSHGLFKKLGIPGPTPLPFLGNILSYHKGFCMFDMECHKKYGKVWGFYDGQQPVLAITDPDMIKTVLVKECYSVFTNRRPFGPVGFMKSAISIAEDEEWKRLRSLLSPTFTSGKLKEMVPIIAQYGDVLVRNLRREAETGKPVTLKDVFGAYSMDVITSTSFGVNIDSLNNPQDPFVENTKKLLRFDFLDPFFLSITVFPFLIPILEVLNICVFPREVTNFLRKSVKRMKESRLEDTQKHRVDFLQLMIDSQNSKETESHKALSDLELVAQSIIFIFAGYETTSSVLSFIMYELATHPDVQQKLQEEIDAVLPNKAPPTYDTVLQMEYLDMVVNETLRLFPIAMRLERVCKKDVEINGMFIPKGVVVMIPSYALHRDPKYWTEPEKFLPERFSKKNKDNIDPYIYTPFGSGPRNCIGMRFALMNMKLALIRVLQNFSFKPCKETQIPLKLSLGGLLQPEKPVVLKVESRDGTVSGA

Escherichia coli = assay: microbe, parasite or virus in culture
[8] = MIN6 cell viability loss – mouse insulinoma, cytotoxicity control, dose response (AID 2122); format: functional;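 further: confirmatory high-throughput counterscreen run to flag cytotoxic compounds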
[9] = decrease of insulin promoter-GFP reporter – imaging, high-content screening, mouse beta cells (AID 1628); format: functional; settings: MIN6
Nonstructural protein 1 = Nonstructural protein 1 (Influenza A virus, UniProt Q194T2); format: functional, Influenza A virus (A/California/07/2009(H1N1))
Sequence of Nonstructural protein 1 (Q194T2 whole entry): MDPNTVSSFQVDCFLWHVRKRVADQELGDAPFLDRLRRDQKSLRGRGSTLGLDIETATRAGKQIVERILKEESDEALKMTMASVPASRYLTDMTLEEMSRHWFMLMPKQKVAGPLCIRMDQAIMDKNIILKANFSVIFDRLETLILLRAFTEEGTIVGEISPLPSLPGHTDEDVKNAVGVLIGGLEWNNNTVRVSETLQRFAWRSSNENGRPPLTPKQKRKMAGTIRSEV

cells [10] = format: functional, cell-based
cells [11] = format: functional, cell-based; remark: listed apart in the source
SUMO-activating enzyme [12] = target: T4, SUMO-activating enzyme (Homo sapiens, UniProt Q9UBT2); assay: blockers of SAE1/SAE2–UBC9 SUMO transfer – biochemical, HTRF, uHTS, primary screen (AID 2006); format: protein-complex assay
T4 sequence (Q9UBE0 whole entry): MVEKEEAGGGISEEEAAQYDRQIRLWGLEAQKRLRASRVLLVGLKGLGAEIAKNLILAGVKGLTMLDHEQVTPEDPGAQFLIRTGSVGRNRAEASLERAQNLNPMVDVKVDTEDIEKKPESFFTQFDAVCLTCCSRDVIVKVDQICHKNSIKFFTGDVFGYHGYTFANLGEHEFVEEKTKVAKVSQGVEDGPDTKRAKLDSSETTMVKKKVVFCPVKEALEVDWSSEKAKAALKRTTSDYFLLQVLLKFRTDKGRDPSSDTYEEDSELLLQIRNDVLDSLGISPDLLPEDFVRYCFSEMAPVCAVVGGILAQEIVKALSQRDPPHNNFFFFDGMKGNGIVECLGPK
T4 sequence (Q9UBT2 whole entry): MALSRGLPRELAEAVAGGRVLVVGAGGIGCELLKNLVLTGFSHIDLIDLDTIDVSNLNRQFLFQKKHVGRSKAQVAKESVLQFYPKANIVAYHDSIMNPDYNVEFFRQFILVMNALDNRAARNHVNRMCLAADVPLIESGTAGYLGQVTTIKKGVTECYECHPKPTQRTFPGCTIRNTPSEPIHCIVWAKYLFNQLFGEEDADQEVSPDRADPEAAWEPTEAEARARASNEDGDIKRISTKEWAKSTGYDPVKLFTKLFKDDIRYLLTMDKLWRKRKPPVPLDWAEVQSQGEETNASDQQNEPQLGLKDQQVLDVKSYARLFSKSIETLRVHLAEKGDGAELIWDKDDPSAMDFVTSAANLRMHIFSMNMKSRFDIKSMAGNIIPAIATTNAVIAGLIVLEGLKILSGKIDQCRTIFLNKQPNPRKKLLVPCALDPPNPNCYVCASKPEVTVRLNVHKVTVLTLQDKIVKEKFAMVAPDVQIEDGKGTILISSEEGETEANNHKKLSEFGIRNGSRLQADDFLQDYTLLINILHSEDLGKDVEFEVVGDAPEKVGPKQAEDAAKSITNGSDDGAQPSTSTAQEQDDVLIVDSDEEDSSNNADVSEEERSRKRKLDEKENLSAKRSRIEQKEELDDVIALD

Genome polyprotein = Genome polyprotein (dengue virus type 2, UniProt P29990); assay: flavivirus cap methylation enzyme inhibition – biochemical, confirmation dose response, primary screen (AID 588689); format: functional
Sequence of Genome polyprotein (P29990 2492-3391 limits assumed): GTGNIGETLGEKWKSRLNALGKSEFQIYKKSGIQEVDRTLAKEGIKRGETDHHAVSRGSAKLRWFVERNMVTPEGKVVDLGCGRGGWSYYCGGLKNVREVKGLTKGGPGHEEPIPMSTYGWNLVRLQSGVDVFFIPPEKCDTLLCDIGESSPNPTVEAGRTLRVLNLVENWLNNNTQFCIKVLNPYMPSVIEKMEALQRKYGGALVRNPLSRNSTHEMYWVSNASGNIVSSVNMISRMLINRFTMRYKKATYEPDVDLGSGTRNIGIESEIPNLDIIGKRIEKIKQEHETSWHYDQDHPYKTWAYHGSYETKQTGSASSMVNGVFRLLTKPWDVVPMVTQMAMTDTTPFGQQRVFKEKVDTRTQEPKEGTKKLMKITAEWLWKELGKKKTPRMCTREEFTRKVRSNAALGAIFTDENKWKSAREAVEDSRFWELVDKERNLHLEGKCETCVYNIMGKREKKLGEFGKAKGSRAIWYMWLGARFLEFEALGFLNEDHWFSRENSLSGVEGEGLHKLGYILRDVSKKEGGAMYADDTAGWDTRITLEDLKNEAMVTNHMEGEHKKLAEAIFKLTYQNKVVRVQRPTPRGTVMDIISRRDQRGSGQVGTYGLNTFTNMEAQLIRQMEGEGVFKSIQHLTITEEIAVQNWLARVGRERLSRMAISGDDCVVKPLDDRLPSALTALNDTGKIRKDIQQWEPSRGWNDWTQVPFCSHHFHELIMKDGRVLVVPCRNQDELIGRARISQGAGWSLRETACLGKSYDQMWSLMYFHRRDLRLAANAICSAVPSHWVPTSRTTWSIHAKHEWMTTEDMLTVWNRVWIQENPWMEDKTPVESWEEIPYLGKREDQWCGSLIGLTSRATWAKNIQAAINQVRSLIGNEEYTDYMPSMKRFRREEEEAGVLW

Procathepsin L = Procathepsin L (Homo sapiens, UniProt P07711); assay: CTSL1 protease inhibition – biochemical, QFRET, 1536-well, counter-screen for M1/M17 aminopeptidase inhibitor project, dose response (AID 2214)
Sequence of Procathepsin L (P07711 whole entry): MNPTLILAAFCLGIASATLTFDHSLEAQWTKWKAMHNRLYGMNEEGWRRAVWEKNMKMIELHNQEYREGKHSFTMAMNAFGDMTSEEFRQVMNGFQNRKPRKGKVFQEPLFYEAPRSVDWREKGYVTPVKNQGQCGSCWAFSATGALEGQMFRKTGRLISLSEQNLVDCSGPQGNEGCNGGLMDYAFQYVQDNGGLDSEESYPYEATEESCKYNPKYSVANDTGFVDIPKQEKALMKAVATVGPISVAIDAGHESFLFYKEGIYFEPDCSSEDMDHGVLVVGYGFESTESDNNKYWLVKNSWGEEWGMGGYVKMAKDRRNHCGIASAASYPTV

Aspartyl aminopeptidase = target: T5, Aspartyl aminopeptidase (Plasmodium falciparum 3D7, UniProt Q8I2J3); assay: Counterscreen for inhibitors of M1 and M17 aminopeptidases: QFRET-based biochemical high throughput dose response assay for inhibitors of the Plasmodium falciparum M18 Aspartyl Aminopeptidase (PFM18AAP). [Related PubChem assays: 1619 (Screening assay (M17LAP inhibitors).), 1445 (Screening assay (M1AAP inhibitors).)]
T5 sequence (Q8I2J3 whole entry): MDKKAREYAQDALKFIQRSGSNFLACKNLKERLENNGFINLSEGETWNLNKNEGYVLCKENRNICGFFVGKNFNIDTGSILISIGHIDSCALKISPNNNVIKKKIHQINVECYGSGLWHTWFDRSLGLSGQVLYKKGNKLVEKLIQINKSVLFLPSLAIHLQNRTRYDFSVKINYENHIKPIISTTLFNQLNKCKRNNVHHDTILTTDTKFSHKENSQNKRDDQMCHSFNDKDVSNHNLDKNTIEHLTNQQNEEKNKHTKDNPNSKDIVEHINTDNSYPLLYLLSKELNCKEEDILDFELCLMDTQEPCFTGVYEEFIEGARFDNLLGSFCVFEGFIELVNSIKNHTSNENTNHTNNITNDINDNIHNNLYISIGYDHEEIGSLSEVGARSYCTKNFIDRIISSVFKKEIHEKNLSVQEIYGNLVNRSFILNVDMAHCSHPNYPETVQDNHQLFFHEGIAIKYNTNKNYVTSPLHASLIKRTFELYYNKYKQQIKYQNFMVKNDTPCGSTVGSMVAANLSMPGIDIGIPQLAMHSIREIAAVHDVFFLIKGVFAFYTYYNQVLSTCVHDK

SUMO-activating enzyme [13] = target: T4, SUMO-activating enzyme; assay: blockers of UBC9-mediated SUMO conjugation – biochemical, AlphaScreen, SUMOylation inhibitor project, confirmation (AID 2018); format: functional
Aminopeptidase N = target: T6, Aminopeptidase N (Plasmodium falciparum FcB1/Columbia, UniProt O96935); assay: malaria alanyl aminopeptidase activity blockers – biochemical, fluorogenic H-Leu-NHMec substrate, 1536-well (AID 1445); parameters: species or system Plasmodium falciparum 3D7, 3D7
T6 sequence (O96935 whole entry): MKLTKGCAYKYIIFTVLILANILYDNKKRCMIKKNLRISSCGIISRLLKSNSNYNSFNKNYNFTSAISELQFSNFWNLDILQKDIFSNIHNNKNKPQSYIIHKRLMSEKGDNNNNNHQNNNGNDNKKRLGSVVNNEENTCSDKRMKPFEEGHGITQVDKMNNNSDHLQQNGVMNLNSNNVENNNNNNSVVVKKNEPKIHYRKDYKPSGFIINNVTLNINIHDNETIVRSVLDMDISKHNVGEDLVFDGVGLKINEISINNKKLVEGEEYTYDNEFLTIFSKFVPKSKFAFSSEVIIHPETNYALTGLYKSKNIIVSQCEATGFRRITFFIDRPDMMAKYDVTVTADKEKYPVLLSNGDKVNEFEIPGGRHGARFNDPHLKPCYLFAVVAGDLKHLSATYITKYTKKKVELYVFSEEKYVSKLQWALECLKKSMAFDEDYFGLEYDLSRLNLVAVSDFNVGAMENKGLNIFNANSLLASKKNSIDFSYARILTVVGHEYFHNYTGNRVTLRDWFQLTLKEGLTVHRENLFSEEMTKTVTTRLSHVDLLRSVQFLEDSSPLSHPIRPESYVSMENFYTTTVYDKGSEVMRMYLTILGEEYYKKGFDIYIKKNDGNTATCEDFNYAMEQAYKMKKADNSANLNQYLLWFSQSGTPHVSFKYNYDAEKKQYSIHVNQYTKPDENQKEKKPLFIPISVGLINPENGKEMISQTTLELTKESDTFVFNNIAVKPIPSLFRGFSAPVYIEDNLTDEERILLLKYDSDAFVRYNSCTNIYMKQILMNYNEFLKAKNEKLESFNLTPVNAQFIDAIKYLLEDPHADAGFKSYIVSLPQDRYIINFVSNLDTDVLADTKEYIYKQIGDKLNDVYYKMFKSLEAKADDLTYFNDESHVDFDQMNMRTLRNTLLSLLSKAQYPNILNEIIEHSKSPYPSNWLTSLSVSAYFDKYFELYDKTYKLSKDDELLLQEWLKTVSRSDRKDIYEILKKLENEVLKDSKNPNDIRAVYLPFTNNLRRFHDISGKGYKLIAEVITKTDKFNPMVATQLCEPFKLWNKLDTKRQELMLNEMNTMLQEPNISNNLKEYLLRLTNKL

T1 sequence (P98170 whole entry, the tested form may be a part): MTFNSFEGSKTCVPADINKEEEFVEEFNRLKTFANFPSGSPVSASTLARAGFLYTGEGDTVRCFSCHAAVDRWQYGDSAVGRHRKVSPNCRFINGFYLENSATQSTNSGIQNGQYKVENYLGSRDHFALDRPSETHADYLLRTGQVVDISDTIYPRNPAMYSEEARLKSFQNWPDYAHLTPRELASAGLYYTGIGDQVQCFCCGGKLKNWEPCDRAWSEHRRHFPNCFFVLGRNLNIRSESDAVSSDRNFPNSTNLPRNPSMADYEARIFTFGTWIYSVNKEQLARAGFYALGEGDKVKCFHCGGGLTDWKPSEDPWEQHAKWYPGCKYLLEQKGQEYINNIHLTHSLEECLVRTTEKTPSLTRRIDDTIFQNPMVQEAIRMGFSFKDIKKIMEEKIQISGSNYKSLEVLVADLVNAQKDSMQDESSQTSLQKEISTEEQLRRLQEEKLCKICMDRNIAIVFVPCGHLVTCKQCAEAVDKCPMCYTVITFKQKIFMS

CC(C)[C@H](NC(=O)[C@H](C)N)C(=O)N[C@@H](C)C(=O)Nc1cccc2ccccc12
IC50 [1]: 103 µM (active)
IC50 [2]: 1.8 µM (active)

CN[C@@H](C)C(=O)N[C@H](C(=O)N[C@@H](C)C(=O)Nc1cccc2ncccc12)C(C)C
IC50 [1]: > 100 µM (inactive)
IC50 [2]: > 100 µM (inactive)

O=C(CSc1nc2nn(-c3ccccc3)c(=O)c-2c2n1CCCCC2)c1ccc(O)c(O)c1
IC50 [3]: > 100 µM (inactive)
IC50 [4]: 9.04 µM (active)
IC50 [5]: > 100 µM (inactive)
AC50 [6]: 2.62 µM (active)

Cc1ccc(NC(=O)C2CC3CCC2C3)cc1 (stereo not given)
EC50 [7]: 0.75 µM (active)

O=C(c1ccccc1)c1ccc(OCC(O)CN2CCN(Cc3ccccc3)CC2)cc1 (stereo not given)
AC50 (Cytochrome P450 3A4): inconclusive

COC(=O)CN1C(=O)N/C(=C/c2ccccc2OC)C1=O
AC50 (Escherichia coli): 60.7 µM (active)

Cc1cccc(NC(=O)C2CC3CCC2C3)c1C (stereo not given)
EC50 [7]: 1 µM (active)

Cc1cc(NC(c2cccnc2)c2ccc3cccnc3c2O)no1 (stereo not given)
IC50 [8]: 3.65 µM (active)
IC50 [9]: 3.53 µM (active)
IC50 (Nonstructural protein 1): 7.09 µM (active)
EC50 (cells [10]): 11.9 µM (active)
EC50 (cells [11]): > 350 µM (not active)

c1ccc(-c2ccccc2OCCOCCN2CCc3ccccc3C2)cc1
IC50 [8]: 3.85 µM (active)
IC50 [9]: 2.55 µM (active)

CC(/C=C1\SC(=S)N(C(C(=O)O)c2ccccc2)C1=O)=C\c1ccccc1 (stereo not given)
IC50 (SUMO-activating enzyme [12]): 26.8 µM (active)
IC50 (Genome polyprotein): 38.5 µM (active)
IC50 (Procathepsin L): > 59.6 µM (not active)
IC50 (Aspartyl aminopeptidase): > 73.5 µM (not active)
IC50 (SUMO-activating enzyme [13]): 10.9 µM (active)
IC50 (Aminopeptidase N): 12.4 µM (active)
